Source: patent publication US11472805B2, “Tricyclic compounds and their use as phosphodiesterase inhibitors” (Pfizer Inc., priority 2015, dated 2022)
Read-outs that look alike come from different tables or passages of the source.

What was measured:
Assay type in all cases: biochemical
[1] = target: Human PDE4A3 (Homo sapiens (Human), UniProt P27815); test: PDE4A3 Scintillation Proximity Assay (SPA), inhibition of enzyme activity; details: read-out: Human PDE4A FL
Outline: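 Recombinant human PDE4A3 expressed in insect cells, purified via Ni-NTA, anti-FLAG and size exclusion. SPA run 30 min at 25 °C in 50 mM Tris pH 7.5, 1.3 mM MgCl2, 0.01% Brij with 1 μM cAMP (20 nM 3H-cAMP), […], ~20% substrate conversion; stopped with yttrium silicate beads.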

[2] = target: Human PDE4B1 (Homo sapiens (Human), UniProt Q07343, S133E/S654A/S659A/S661A); test: PDE4B1 Scintillation Proximity Assay (SPA), inhibition of enzyme activity; details: read-out: Human PDE4B FL
Outline: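 His-tagged enzyme from baculovirus-infected insect cells, Ni-NTA purified. SPA with 1 μM cAMP (20 nM 3H-cAMP tracer) in 50 mM Tris pH 7.5, 1.3 mM MgCl2, 0.01% Brij, […] PDE4B enzyme for ~20% substrate conversion; 30 min at 25 °C, stopped with yttrium silicate beads, read after 8 h settling.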

[3] = target: Human PDE4C1 (Homo sapiens (Human), UniProt Q08493); test: PDE4C1 Scintillation Proximity Assay (SPA), inhibition of enzyme activity; details: read-out: Human PDE4C FL
Outline: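 Recombinant insect-cell-expressed human PDE4C1 […] in 50 mM Tris pH 7.5, 1.3 mM MgCl2, 0.01% Brij with 1 μM cAMP (3H-cAMP tracer), ~20% substrate conversion, inhibitor concentration range. Incubated 30 min at 25° C; stopped with yttrium silicate SPA beads, read by scintillation after 8 h settling.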

[4] = target: human PDE4D3 (Homo sapiens (Human), UniProt Q08499); test: PDE4D3 Scintillation Proximity Assay (SPA), inhibition of enzyme activity; details: read-out: Human PDE4D FL
Outline: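 His-tagged human PDE4D3 (aa 50–672), expressed in insect cells, hydrolysed 1 μM cAMP (3H tracer plus cold) for 30 min at 25° C in 50 mM Tris pH 7.5, 1.3 mM MgCl2 and 0.01% Brij. Enzyme level was set for ~20% conversion. Product was read by yttrium silicate SPA beads after 8 h settling.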

[5] = Table 9, geometric mean of 2-9 determinations unless otherwise indicated
[6] = Table 10, geometric mean of 2-9 determinations unless otherwise indicated

Sequence of Human PDE4B1 (Q07343 122-736 S133E/S654A/S659A/S661A): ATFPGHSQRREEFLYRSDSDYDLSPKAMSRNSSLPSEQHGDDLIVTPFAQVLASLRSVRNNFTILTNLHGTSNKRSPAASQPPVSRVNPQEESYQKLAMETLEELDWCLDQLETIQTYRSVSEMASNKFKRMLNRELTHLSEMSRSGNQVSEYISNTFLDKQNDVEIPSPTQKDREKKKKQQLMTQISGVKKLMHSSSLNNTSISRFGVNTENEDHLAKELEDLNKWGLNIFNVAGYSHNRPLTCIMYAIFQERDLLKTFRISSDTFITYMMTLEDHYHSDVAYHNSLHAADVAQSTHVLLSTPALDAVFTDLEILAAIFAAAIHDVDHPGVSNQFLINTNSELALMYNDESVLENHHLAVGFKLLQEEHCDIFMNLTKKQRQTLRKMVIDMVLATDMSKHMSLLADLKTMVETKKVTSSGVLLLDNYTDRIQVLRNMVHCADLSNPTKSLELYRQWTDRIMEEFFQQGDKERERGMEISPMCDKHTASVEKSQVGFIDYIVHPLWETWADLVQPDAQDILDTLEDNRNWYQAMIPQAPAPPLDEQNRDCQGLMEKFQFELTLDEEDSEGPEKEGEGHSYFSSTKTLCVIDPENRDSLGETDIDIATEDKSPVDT
Sequence of Human PDE4A3 (P27815 other isoform, or with tags, fused parts or gaps): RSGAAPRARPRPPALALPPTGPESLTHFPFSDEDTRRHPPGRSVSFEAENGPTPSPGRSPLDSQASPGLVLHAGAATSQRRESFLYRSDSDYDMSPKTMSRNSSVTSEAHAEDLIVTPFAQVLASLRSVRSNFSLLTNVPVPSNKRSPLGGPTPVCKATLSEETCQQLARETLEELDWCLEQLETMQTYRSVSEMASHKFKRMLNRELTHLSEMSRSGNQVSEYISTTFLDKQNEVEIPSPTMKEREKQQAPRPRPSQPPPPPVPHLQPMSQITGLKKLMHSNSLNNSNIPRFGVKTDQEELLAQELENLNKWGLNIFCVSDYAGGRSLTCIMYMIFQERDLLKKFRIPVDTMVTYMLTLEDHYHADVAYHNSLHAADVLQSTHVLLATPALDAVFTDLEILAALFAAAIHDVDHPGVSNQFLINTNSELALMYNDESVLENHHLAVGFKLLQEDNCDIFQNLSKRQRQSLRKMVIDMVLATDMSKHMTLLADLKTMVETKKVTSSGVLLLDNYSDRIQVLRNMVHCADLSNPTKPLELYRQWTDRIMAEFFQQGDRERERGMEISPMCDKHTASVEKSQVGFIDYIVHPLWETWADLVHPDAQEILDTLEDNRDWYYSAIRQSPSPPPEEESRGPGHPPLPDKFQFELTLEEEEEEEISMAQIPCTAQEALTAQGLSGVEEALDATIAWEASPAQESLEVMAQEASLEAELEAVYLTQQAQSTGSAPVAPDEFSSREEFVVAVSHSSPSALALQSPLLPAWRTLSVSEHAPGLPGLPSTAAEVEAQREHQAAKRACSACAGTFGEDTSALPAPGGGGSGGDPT
Sequence of human PDE4D3 (Q08499 186-808): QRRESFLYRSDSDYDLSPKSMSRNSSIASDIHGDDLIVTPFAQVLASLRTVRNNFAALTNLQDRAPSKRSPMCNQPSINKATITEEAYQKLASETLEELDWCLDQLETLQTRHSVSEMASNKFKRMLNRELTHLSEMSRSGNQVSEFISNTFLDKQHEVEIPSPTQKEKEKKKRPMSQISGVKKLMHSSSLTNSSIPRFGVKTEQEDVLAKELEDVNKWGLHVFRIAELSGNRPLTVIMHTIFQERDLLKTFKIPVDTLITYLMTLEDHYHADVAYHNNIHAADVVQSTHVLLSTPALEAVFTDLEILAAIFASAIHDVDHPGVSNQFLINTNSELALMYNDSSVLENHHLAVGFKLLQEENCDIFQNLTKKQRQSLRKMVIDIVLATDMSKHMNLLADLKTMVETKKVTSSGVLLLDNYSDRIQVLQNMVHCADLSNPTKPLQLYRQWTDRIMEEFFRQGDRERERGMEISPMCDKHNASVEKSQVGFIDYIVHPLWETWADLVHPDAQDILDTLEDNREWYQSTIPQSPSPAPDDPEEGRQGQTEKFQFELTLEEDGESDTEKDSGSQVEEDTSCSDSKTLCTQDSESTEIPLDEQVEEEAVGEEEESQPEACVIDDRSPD
Sequence of Human PDE4C1 (Q08493 2-712): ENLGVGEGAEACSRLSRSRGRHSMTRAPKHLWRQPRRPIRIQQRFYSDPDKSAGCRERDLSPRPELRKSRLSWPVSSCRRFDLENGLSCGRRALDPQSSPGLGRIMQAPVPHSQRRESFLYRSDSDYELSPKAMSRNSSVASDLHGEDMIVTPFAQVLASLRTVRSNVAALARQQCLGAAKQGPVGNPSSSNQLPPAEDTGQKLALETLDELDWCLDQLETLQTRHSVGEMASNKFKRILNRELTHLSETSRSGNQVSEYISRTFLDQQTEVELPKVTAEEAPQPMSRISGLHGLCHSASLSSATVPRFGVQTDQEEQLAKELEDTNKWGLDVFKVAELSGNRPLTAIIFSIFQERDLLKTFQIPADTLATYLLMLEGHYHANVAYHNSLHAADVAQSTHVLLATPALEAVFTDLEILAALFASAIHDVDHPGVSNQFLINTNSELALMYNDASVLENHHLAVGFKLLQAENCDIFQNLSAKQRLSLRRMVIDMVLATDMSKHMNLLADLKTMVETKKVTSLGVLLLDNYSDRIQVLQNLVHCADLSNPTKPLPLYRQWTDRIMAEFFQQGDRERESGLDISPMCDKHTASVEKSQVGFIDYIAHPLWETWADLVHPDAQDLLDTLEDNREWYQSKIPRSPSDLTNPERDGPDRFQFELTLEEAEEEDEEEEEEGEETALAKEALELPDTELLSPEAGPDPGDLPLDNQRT

| IC50 [1, 5] [nM] | IC50 [2, 5] [nM] | IC50 [3, 5] [nM] | IC50 [4, 5] [nM] | IC50 [1, 6] [nM] | IC50 [2, 6] [nM] | IC50 [3, 6] [nM] | IC50 [4, 6] [nM] | SMILES |
| --- | --- | --- | --- | --- | --- | --- | --- | --- |
| 1.26 | 3.99 | 11.7 | 286 | – | – | – | – | O=C1c2c(-c3ccc(Cl)cc3)c3c(n2CCN1C1CC1)CCCO3 [Example 75, 10-(4-Chlorophenyl)-8-cyclopropyl-3,4,7,8-tetrahydro-2H-pyrano[2′,3′:4,5]pyrrolo[1,2-a]pyrazin-9(6H)-one] |
| 1 | 1 | 2.45 | 12.7 | – | – | – | – | Cc1cc(Cl)c(F)cc1-c1c2c(n3c1C(=O)N(C1CC1)CC3)CCCO2 [Example 29, 10-(4-Chloro-5-fluoro-2-methylphenyl)-8-cyclopropyl-3,4,7,8-tetrahydro-2H-pyrano[2′,3′:4,5]pyrrolo[1,2-a]pyrazin-9(6H)-one] |
| 129 | 298 | 127 | 8190 | – | – | – | – | O=C1c2c(-c3ccc(Cl)cc3)c3cccnc3n2CCN1C1CC1 [Example 9, 5-(4-Chlorophenyl)-7-cyclopropyl-8,9-dihydropyrido[3′,2′: 4,5]pyrrolo[1,2-a]pyrazin-6(7H)-one] |
| < 0.31 | < 0.55 | 2 | 21.6 | – | – | – | – | O=C1c2c(-c3ccc(Cl)c(F)c3)c3c(n2CCN1C1CC1)CCCO3 [Example 76, 10-(4-Chloro-3-fluorophenyl)-8-cyclopropyl-3,4,7,8-tetrahydro-2H-pyrano[2′,3′:4,5]pyrrolo[1,2-a]pyrazin-9(6H)-one] |
| 25 | 48.2 | 100 | 1780 | – | – | – | – | O=C1c2c(-c3ccc(Cl)cc3)c3ncncc3n2CCN1C1CC1 [Example 25, 10-(4-Chlorophenyl)-8-cyclopropyl-7,8-dihydropyrazino[1′,2′:1,5]pyrrolo[3,2-d]pyrimidin-9(6H)-one] |
| – | – | – | – | 24000 | > 24700 | 6970 | > 30000 | Cn1ncc(Cl)c1-c1c2n(c3cccnc13)CCN(C1CC1)C2=O [Example 93, 10-(4-Chloro-1-methyl-1H-pyrazol-5-yl)-8-cyclopropyl-7,8-dihydropyrido[2′,3′:4,5]pyrrolo[1,2-a]pyrazin-9(6H)-one] |
| – | – | – | – | 345 | 1890 | 649 | 1920 | CCCc1cnc(N2CCn3c(c(-c4ccc(Cl)cc4)c4ncccc43)C2=O)nc1 [Example 95, 10-(4-Chlorophenyl)-8-(5-propylpyrimidin-2-yl)-7,8-dihydropyrido[2′,3′:4,5]pyrrolo[1,2-a]pyrazin-9(6H)-one] |
| 7.47 | 11.3 | 20.2 | 872 | – | – | – | – | N#Cc1ccc(-c2c3n(c4cccnc24)CCN(C2CC2)C3=O)c(F)c1 [Example 22, 4-(8-Cyclopropyl-9-oxo-6,7,8,9-tetrahydropyrido[2′,3′:4,5]pyrrolo[1,2-a]pyrazin-10-yl)-3-fluorobenzonitrile] |
| 2.8 | 2.67 | 8.55 | 108 | – | – | – | – | N#Cc1ccc(-c2c3ncccc3n3ccn(C4CC4)c(=O)c23)cc1 [Example 70, 4-(8-Cyclopropyl-9-oxo-8,9-dihydropyrido[2′,3′:4,5]pyrrolo[1,2-a]pyrazin-10-yl)benzonitrile] |
